In brackets after ≈: the same amount, converted by molar mass.
Key:
[1] = tested on: M. tuberculosis H37Rv (ATCC 27294); assay: Microplate Alamar Blue Assay; type: cell-based, Mycobacterium tuberculosis; conditions: for MIC, H37Rv: MABA, concentration giving ≥ 90% inhibition, 7 days, 37 °C, triplicate; for SI (selectivity index = IC50/MIC), H37Rv: Vero IC50 / MIC H37Rv, limited by 120 μg/ml cytotoxicity cutoff
[2] = type: cell-based, African green monkey; conditions: African green monkey
[3] = tested on: M. tuberculosis Erdman (ATCC 35801); assay: Microplate Alamar Blue Assay; type: cell-based, Mycobacterium tuberculosis; conditions: for MIC, Erdman: MABA, concentration giving ≥ 90% inhibition, 7 days, 37 °C, triplicate; for SI (selectivity index = IC50/MIC), Erdman: Vero IC50 / MIC Erdman, limited by 120 μg/ml cytotoxicity cutoff
[4] = tested on: Mycobacterium tuberculosis (H37Rv and ERDMAN); assay: MABA, result stated for both strains without assignment; type: cell-based
Vero cells = type: cell-based, African green monkey; conditions: Vero cells, 72 hours; cutoff 120 μg/ml

SMILES	MIC, H37Rv [1]	SI (selectivity index = IC50/MIC), H37Rv [1]	IC50 at 72 h [2] [µg/mL]	MIC, Erdman [3]	SI (selectivity index = IC50/MIC), Erdman [3]	MIC [4] [µg/mL]	Cytotoxicity IC50 (Vero cells) [µg/mL]
C=C[C@@H](O)C#CC#C[C@@H](O)/C=C\CCCCCCC [Compound 1, falcarindiol]	26.7 µg/mL (≈ 103 µM)	>4	> 120	6.0 µg/mL (≈ 23 µM)	>19	1.4 to 26.7 (≈ 5.38 to 103 µM)	–
C=CC(O)C#CC#CC(O)/C=C\CCCCCCCCOC(C)=O (stereo not drawn) [Compound 2, 9Z,17-octadecadiene-12,14-diyne-1,11,16-triol,1-acetate]	25.3 µg/mL (≈ 76.1 µM)	>4	–	1.4 µg/mL (≈ 4.21 µM)	> 100	–	>120
CCCCCCC/C=C\[C@H](O)C#CC#C[C@@H](O)CC [Compound 3, oplopandiol]	50.2 µg/mL (≈ 191 µM)	>2	> 120	49.5 µg/mL (≈ 189 µM)	>2	–	–
C=CC(O)C#CC#CC(O)C1OC1CCCCCCC (stereo not drawn) [Compound 4, heptadeca-1-ene-9,10-epoxy-4,6-diyne-3,8-diol]	–	–	–	–	–	–	>120
CCCCCCC/C=C\C(O)C#CC#CC(=O)CCOC (stereo not drawn) [Compound 5, 8-hydroxy-1-methoxy-(Z)-9-heptadecene-4,6-diyn-3-one]	above 60 μg/mL	–	> 120	above 60 μg/mL	–	> 60	–
CO[C@H]1/C=C/O[C@@]2(C)Oc3c(C)c(O)c4c(O)c(c(/C=N/N5CCN(C)CC5)c(O)c4c3C2=O)NC(=O)/C(C)=C\C=C\[C@H](C)[C@H](O)[C@@H](C)[C@@H](O)[C@@H](C)[C@H](OC(C)=O)[C@@H]1C [RMP, Rifampin, reference compound]	–	1860	112 (≈ 136 µM)	–	2232	–	–

Reference: PMC2504689 (Phytotherapy research : PTR, 2008)
